From US20260049092A1, “ANTIBACTERIAL COMPOUNDS” (Blacksmith Medicines, Inc., priority 2022, published 2026)
Converted amounts (≈) assume the structure as drawn.

Key:
Test in all cases: Bacterial susceptibility testing (MIC, broth microdilution)
Assay type in all cases: cell-based
E. coli ATCC25922 = details: Escherichia coli, ATCC25922, broth microdilution, cation adjusted Mueller-Hinton Broth, 35° C., 18-24 h; read-out: E. coli ATCC25922 MIC
In short: (§1)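 CLSI broth microdilution was run in cation-adjusted Mueller-Hinton broth with an inoculum of 3×10^5–7×10^5 CFU/mL and 2-fold compound dilutions. Plates were incubated in ambient air at 35° C for 18-24 h. MIC was the lowest concentration preventing visible growth (OD600 nm<0.05).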

K. pneumoniae ATCC13883 = details: Klebsiella pneumoniae, ATCC13883, broth microdilution, cation adjusted Mueller-Hinton Broth, 35° C., 18-24 h; read-out: K. pneumoniae ATCC13883 MIC
In short: as §1

P. aeruginosa ATCC27853 = details: Pseudomonas aeruginosa, ATCC27853, broth microdilution, cation adjusted Mueller-Hinton Broth, 35° C., 18-24 h; read-out: P. aeruginosa ATCC27853 MIC
In short: as §1

P. aeruginosa PAO1 = details: Pseudomonas aeruginosa, PAO1; broth microdilution, cation adjusted Mueller-Hinton Broth, 35° C., 18-24 h; read-out: P. aeruginosa PAO1 MIC
In short: as §1

Compound | MIC (E. coli ATCC25922) | MIC (K. pneumoniae ATCC13883) | MIC (P. aeruginosa ATCC27853) | MIC (P. aeruginosa PAO1)
C[C@H](O)c1nccn1[C@@H](C#Cc1ccc(-c2ccn(C)c(=O)c2)cc1)CO [Compound 112, 4-(4-((S)-4-hydroxy-3-(2-((S)-1-hydroxyethyl)-1H-imidazol-1-yl)but-1-yn-1-yl)phenyl)-1-methylpyridin-2(1H)-one] | > 32 µg/mL | > 32 µg/mL | > 32 µg/mL | > 32 µg/mL
C[C@H](O)c1nccn1[C@@H](C#Cc1ccc(-c2ccc(C3COC3)cc2)cc1)CO [Compound 128, (S)-2-(2-((S)-1-hydroxyethyl)-1H-imidazol-1-yl)-4-(4′-(oxetan-3-yl)-[1,1′-biphenyl]-4-yl)but-3-yn-1-ol] | 0.25 µg/mL (≈ 0.644 µM) | 1 µg/mL (≈ 2.57 µM) | 4 µg/mL (≈ 10.3 µM) | 2 µg/mL (≈ 5.15 µM)
C[C@H](O)c1nccn1[C@@H](C#Cc1ccc(-c2ccc(OC3(C)COC3)cc2)cc1)CO [Compound 136, (S)-2-(2-((S)-1-hydroxyethyl)-1H-imidazol-1-yl)-4-(4′-((3-methyloxetan-3-yl)oxy)-[1,1′-biphenyl]-4-yl)but-3-yn-1-ol] | 0.25 µg/mL (≈ 0.597 µM) | 0.5 µg/mL (≈ 1.19 µM) | 4 µg/mL (≈ 9.56 µM) | 2 µg/mL (≈ 4.78 µM)

Second part, the compound after the results:

MIC (E. coli ATCC25922) | MIC (K. pneumoniae ATCC13883) | MIC (P. aeruginosa ATCC27853) | MIC (P. aeruginosa PAO1) | Compound
1 µg/mL (≈ 2.66 µM) | 2 µg/mL (≈ 5.31 µM) | 16 µg/mL (≈ 42.5 µM) | 4 µg/mL (≈ 10.6 µM) | C[C@H](O)c1nccn1[C@@H](C#Cc1ccc(-c2ccc([C@@H](C)O)cc2)cc1)CO [Compound 138, (S)-2-(2-((S)-1-hydroxyethyl)-1H-imidazol-1-yl)-4-(4′-((R)-1-hydroxyethyl)-[1,1′-biphenyl]-4-yl)but-3-yn-1-ol]
0.5 µg/mL (≈ 1.16 µM) | 1 µg/mL (≈ 2.33 µM) | 4 µg/mL (≈ 9.31 µM) | 1 µg/mL (≈ 2.33 µM) | CC(=O)N1CC(c2ccc(-c3ccc(C#C[C@@H](CO)n4ccnc4[C@H](C)O)cc3)cc2)C1 [Compound 139, 1-(3-(4′-((S)-4-hydroxy-3-(2-((S)-1-hydroxyethyl)-1H-imidazol-1-yl)but-1-yn-1-yl)-[1,1′-biphenyl]-4-yl)azetidin-1-yl)ethan-1-one]
0.25 µg/mL (≈ 0.567 µM) | 0.5 µg/mL (≈ 1.13 µM) | 4 µg/mL (≈ 9.08 µM) | 2 µg/mL (≈ 4.54 µM) | C[C@H](O)c1nccn1[C@@H](C#Cc1ccc(-c2ccc(C3CN(CCC#N)C3)cc2)cc1)CO [Compound 140, 3-(3-(4′-((S)-4-hydroxy-3-(2-((S)-1-hydroxyethyl)-1H-imidazol-1-yl)but-1-yn-1-yl)-[1,1′-biphenyl]-4-yl)azetidin-1-yl)propanenitrile]
